From PMC9944328 (Nature Communications, 2023)

System: SSTR2 mutants
Experiment: NanoBiT β-arrestin 1 recruitment assay, HEK293 (SSTR2 mutants);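 as to Best-fit Bottom: percent of maximal wild-type SSTR2 response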;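 as to Best-fit Span: percent of maximal wild-type SSTR2 response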;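 as to Best-fit Top: percent of maximal wild-type SSTR2 response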;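 as to Bottom (best-fit): percent of maximal wild-type response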;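 as to Span (best-fit value): percent of maximal wild-type response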;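 as to Span (best-fit): percent of maximal wild-type response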;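 as to Top (best-fit value): percent of maximal wild-type response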;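 as to Top (best-fit): percent of maximal wild-type response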
Assay type: cell-based, human
Conditions: for Bottom (β-arrestin1 recruitment) / LogEC50 (β-arrestin1 recruitment) / Span (β-arrestin1 recruitment) / Top (β-arrestin1 recruitment): best-fit
Description: The NanoBiT β-arrestin 1 recruitment assays were carried out according to the method described previously. […] Human full-length SSTR wild-type and mutant vectors were C-terminally fused with a 15-amino acid flexible linker and the small fragment (SmBiT). HEK293 cells were seeded into six-well microplates at a density of 1.0 × 10^6 cells/well and cultured for 24 h at 37 °C with 5% CO2. After that, cells were co-transfected with pcDNA3.1+ vectors encoding SSTR wild-type or mutants and human β-arrestin 1. After transfecting for 24 h, the transfected cells were suspended and seeded into white 96-well plates, and then cultured at 37 °C overnight. After that the medium in each well was exchanged for 90 μl of 0.01% bovine serum albumin containing 20 μl of 50 μM coelenterazine h (Carbosynth) diluted in the HBSS assay buffer and incubated for 40 min at room temperature. Then, ligands diluted in the assay buffer was added to each well and the luminescence intensity was measured using the Synergy H1 microplate reader and detected at room temperature in a time period. All data presented are means of at least three independent experiments.

## N#Cc1cccc(-c2ccc3ncc(-c4cc(F)cc(F)c4)c(N4CCC(N)CC4)c3c2)c1O [paltusotine]
F127A-1
  Bottom (best-fit): -1.415
  LogEC50 (best-fit): -6.677
  Span (best-fit): 63.7
  Top (best-fit): 62.28
F127A-2
  Bottom (best-fit): -1.034
  LogEC50 (best-fit): -6.706
  Span (best-fit): 59.48
  Top (best-fit): 58.45
F127A-3
  Bottom (best-fit): -1.184
  LogEC50 (best-fit): -6.817
  Span (best-fit): 69.08
  Top (best-fit): 67.89
F294(7.35)A
  β-arrestin recruitment of mutant: slightly influenced the β-arrestin pathway
I284ECL3A, K291(7.32)A and N276(6.55)A
  β-arrestin recruitment of mutants: slightly enhanced recruitment of β-arrestin
SSTR2 I284A, run 1
  Best-fit Bottom: -1.437
  Best-fit LogEC50: -6.742
  Best-fit Span: 206.6
  Best-fit Top: 205.2
SSTR2 I284A, run 2
  Best-fit Bottom: -1.082
  Best-fit LogEC50: -6.742
  Best-fit Span: 155.6
  Best-fit Top: 154.5
SSTR2 I284A, run 3
  Best-fit Bottom: -1.233
  Best-fit LogEC50: -6.745
  Best-fit Span: 219.6
  Best-fit Top: 218.3
SSTR2 W269A, run W269A-1
  Bottom (best-fit value): -0.1166
  LogEC50 (best-fit value): -6.523
  Span (best-fit value): 23.55
  Top (best-fit value): 23.43
SSTR2 W269A, run W269A-2
  Bottom (best-fit value): -0.1813
  LogEC50 (best-fit value): -6.214
  Span (best-fit value): 28.45
  Top (best-fit value): 28.27
SSTR2 W269A, run W269A-3
  Bottom (best-fit value): 0.3375
  LogEC50 (best-fit value): -6.325
  Span (best-fit value): 20.32
  Top (best-fit value): 20.66
SSTR2 Y50A, run 1
  Best-fit Bottom: -1.913
  Best-fit LogEC50: -7.128
  Best-fit Span: 70.62
  Best-fit Top: 68.71
SSTR2 Y50A, run 2
  Best-fit Bottom: -2.472
  Best-fit LogEC50: -7.187
  Best-fit Span: 103.4
  Best-fit Top: 100.9
SSTR2 Y50A, run 3
  Best-fit Bottom: -2.529
  Best-fit LogEC50: -7.176
  Best-fit Span: 105.2
  Best-fit Top: 102.6
SSTR2 Y205A, run Y205A-1
  Bottom (best-fit value): -3.142
  LogEC50 (best-fit value): -6.819
  Span (best-fit value): 125.5
  Top (best-fit value): 122.3
SSTR2 Y205A, run Y205A-2
  Bottom (best-fit value): -4.259
  LogEC50 (best-fit value): -6.824
  Span (best-fit value): 138.9
  Top (best-fit value): 134.6
SSTR2 Y205A, run Y205A-3
  Bottom (best-fit value): -4.015
  LogEC50 (best-fit value): -6.671
  Span (best-fit value): 203.2
  Top (best-fit value): 199.2
V103(2.64)A
  β-arrestin signal of mutant: markedly reduced the paltusotine-induced β-arrestin signal
D295A-1
  Bottom (β-arrestin1 recruitment): 0.727
  LogEC50 (β-arrestin1 recruitment): -5.635
  Span (β-arrestin1 recruitment): 100
  Top (β-arrestin1 recruitment): 100.7
D295A-2
  Bottom (β-arrestin1 recruitment): 1.431
  LogEC50 (β-arrestin1 recruitment): -5.595
  Span (β-arrestin1 recruitment): 100.8
  Top (β-arrestin1 recruitment): 102.3
D295A-3
  Bottom (β-arrestin1 recruitment): 0.3814
  LogEC50 (β-arrestin1 recruitment): -5.706
  Span (β-arrestin1 recruitment): 93.14
  Top (β-arrestin1 recruitment): 93.53
F294A-1
  Bottom (β-arrestin1 recruitment): -2.632
  LogEC50 (β-arrestin1 recruitment): -5.979
  Span (β-arrestin1 recruitment): 125.8
  Top (β-arrestin1 recruitment): 123.2
F294A-2
  Bottom (β-arrestin1 recruitment): -1.982
  LogEC50 (β-arrestin1 recruitment): -5.979
  Span (β-arrestin1 recruitment): 94.75
  Top (β-arrestin1 recruitment): 92.77
F294A-3
  Bottom (β-arrestin1 recruitment): -2.454
  LogEC50 (β-arrestin1 recruitment): -6.059
  Span (β-arrestin1 recruitment): 130.8
  Top (β-arrestin1 recruitment): 128.3
K291A-1
  Bottom (β-arrestin1 recruitment): -2.723
  LogEC50 (β-arrestin1 recruitment): -7.098
  Span (β-arrestin1 recruitment): 158
  Top (β-arrestin1 recruitment): 155.2
K291A-2
  Bottom (β-arrestin1 recruitment): -3.352
